# Key:
# [1] = Temperature sensitivity of carboxylic acid extraction by 0.5 mol/kg Alamine 304 + 10% octanol in kerosene; type: physicochemical; details: distribution coefficient at 30°C divided by that at 75°C; for TS in Equilibrium with Aqueous Solutions of (mol/kg) 0.05: aqueous phase 0.05 mol/kg; for TS in Equilibrium with Aqueous Solutions of (mol/kg) 0.2: aqueous phase 0.2 mol/kg; for TS in Equilibrium with Aqueous Solutions of (mol/kg) 0.3: aqueous phase 0.3 mol/kg; for TS in Equilibrium with Aqueous Solutions of (mol/kg) 0.475: aqueous phase 0.475 mol/kg
# Source text: Referring now to said patents and the teachings thereof, one finds that the process taught therein utilizes the effect of temperature on phosphoric and carboxylic acid extraction by amine-based extractants. The term "amine" as used herein means water-immiscible amine, with a total of at least 20 carbon atoms on its chains. Said patents teach that such amine-based extractants (ABE) lose much of their extraction efficiency upon temperature elevation. This loss of efficiency is referred to as "temperature sensitivity of extraction" (TS). The magnitude of this TS can be represented by the ratio of the distribution coefficient at the lower temperature (DT1) and the distribution coefficient at the higher temperature (DT2). High TS provides for the purification and the concentration of carboxylic acids through altering the temperature between extraction and back-extraction. The acid is extracted from the fermentation liquor by an ABE at low temperature, and is then back-extracted with water at an elevated temperature. The aqueous solution obtained from that back-extraction is, in many cases, more concentrated than in the fermentation liquor. This process is referred to herein as the "temperature swing process" (TSP). The attraction of such processes is in the fact that the sole energy consumption is that of sensible heat, which saves a lot of the latent heat of water evaporation in the final concentration.
# [2] = Distribution curves, extractant 1.2 mol/kg tricaprylyl amine (50%) and 3.8 mol/kg octanol (50%) (Fig. 3); type: physicochemical; details: extraction at 25°C and back-extraction at 96°C
# Experimental: Fig. 3 illustrates distribution curves for extraction by an extractant composed of 1.2 mol/kg tricaprylyl amine (50%) and 3.8 mol/kg octanol (50%). The loading of the extractant in contact with 0.2 mol/kg ascorbic acid containing aqueous solution is about 0.5 mol/kg. […] The effect is even more impressive at the low concentrations end. […] A concentration factor of about 4 can be reached on extraction at 25°C and back-extraction at 96°C.
# [3] = cited from earlier work
# [4] = Extraction at 25°C and stripping at about 96°C with 50% w/w tridodecylamine and 50% w/w 1-n-octanol, recycled extractant; type: physicochemical; details: practically complete extraction with recycled extractant; feed 0.22 mol/kg
# Experimental: […]. […] […]. The extractant was composed of 50% w/w tridodecylamine and 50% w/w of 1-n-octanol. The extraction was conducted at 25°C and the stripping at about 96°C.
# Extraction as in Example 12 (100 g aqueous, 40 g extractant, 3 countercurrent stages) results in practically complete extraction of the acid to form an extract (loaded extractant) comprising 5% w/w lactic acid. […]. About two-thirds of the extracted lactic acid stays in the organic phase. Re-use of this organic phase in extraction from 2% lactic acid solutions results in low yields; not more than 20% of the acid is extracted. Increasing the number of stages in extraction has only a small effect. Near complete stripping and thus high yield in re-use of the organic phase requires about 150 g water per 40 g of extract, and 6-7 countercurrent stages. […]
# Stripping the extract at 96°C with 35 g water results in an aqueous solution comprising 0.6 mol/kg ascorbic acid and an organic phase practically free of ascorbic acid. Re-use of this organic phase in extraction provides an extraction yield of at least 95% at the above conditions.
# [5] = Distribution curves, extractant 1.2 mol/kg tricaprylyl amine and 2.4 mol/kg octanol in kerosene (Fig. 2); type: physicochemical; details: temperature gradient of 25-80°C
SMILES,TS in Equilibrium with Aqueous Solutions of (mol/kg) 0.05 [1],TS in Equilibrium with Aqueous Solutions of (mol/kg) 0.2 [1],TS in Equilibrium with Aqueous Solutions of (mol/kg) 0.3 [1],TS in Equilibrium with Aqueous Solutions of (mol/kg) 0.475 [1],temperature sensitivity [2],pKa [3],product diluted compared with the feed [4] [times],uphill concentration factor [5]
"O=C(O)CC(O)(CC(=O)O)C(=O)O [Citric, citric acid]",6.0,3.1,2.6,2.2,Practically no temperature sensitivity,–,–,–
O=C(O)[C@H](O)[C@@H](O)[C@H](O)[C@H](O)CO [Gluconic],2.1,2.3,2.4,2.6,–,–,–,–
O=C(O)CCCC(=O)O [Glutaric],3.9,4.5,4.5,4.4,–,4.4,–,–
CC(C)C(=O)O [Isobutyric],1.9,1.5,1.4,1.1,–,–,–,–
"CC(O)C(=O)O (stereo not drawn) [Lactic, lactic acid]",2.5,2.4,2.4,2.2,–,–,4,–
O=C(O)/C=C\C(=O)O [Maleic],1.1,1.0,1.0,1.0,–,–,–,–
O=C(O)CC(O)C(=O)O (stereo not drawn) [Malic],4.0,4.3,4.0,4.0,–,3.22,–,–
O=C(O)CC(=O)O [Malonic],3.6,1.5,1.3,1.1,–,–,–,–
"O=C(O)CCC(=O)O [Succinic, succinic acid]",4.3,4.0,4.0,4.1,–,–,–,about 2
O=C(O)C(O)C(O)C(=O)O (stereo not drawn) [Tartaric],3.4,3.2,2.7,2.4,–,–,–,–
